Test results: patent publication US20240350493A1 (Kadmon Corporation, LLC, priority 2022, published 2024)
≈ marks a conversion by molar mass, not a printed value. Entries after “also recorded” stand apart in the source; their conditions may differ.

How the values were obtained:
CYP2D6 [1] = target: T1, CYP2D6 (Homo sapiens, UniProt P10635); assay: enzyme inhibition, in vitro; assay type: in vitro ADME
pregnant rats = assay: embryo-fetal development studies in rats; assay type: in vivo, rat
Experimental: In the pilot study, maternal toxicity and embryo-fetal developmental effects were observed. Maternal toxicity (reduced body weight gain) occurred at 150 and 300 mg/kg/day doses. Increased post-implantation loss occurred at 50 and 300 mg/kg/day.

[2] = previously conducted solubility studies; assay type: physicochemical
Experimental: Rabeprazole, a strong PPI, suppresses the secretion of gastric acid by noncompetitive blockade of H+/K+-adenosine triphosphatase at the secretory surface of gastric parietal cells, thereby raising the intra-gastric pH above 3.0. The recommended starting dose of sodium rabeprazole for subjects with GI ulcers and GERD is 20 mg per day and for subjects with hypersecretory syndromes is 60 mg per day (Accord-UK Ltd. Summary of Product Characteristics: Rabeprazole 20 mg Gastro-resistant Tablets, available at www.medicines.org.uk/emc/medicine/27143/SPC/Rabeprazole+20 mg+Gastro-resistant+Tablets/. Updated 16 Apr. 2020. Accessed 12 Aug. 2021).

CYP2D6 [3] = target: T1, CYP2D6; assay: incubations with recombinant enzymes; assay type: in vitro ADME
[4] = system: human peripheral blood lymphocytes (HPBL); assay: in vitro chromosome aberration assay; assay type: cell-based
BCRP = BCRP (Homo sapiens, UniProt Q9UNQ0); assay: transporter inhibition, in vitro; assay type: in vitro ADME; details: at clinically relevant concentrations
CYP3A4 = CYP3A4 (Homo sapiens, UniProt P08684); assay: incubations with recombinant enzymes; assay type: in vitro ADME
UGT1A9 = UGT1A9 (Homo sapiens, UniProt O60656); assay: enzyme inhibition, in vitro; assay type: in vitro ADME
OATPIB1 = OATPIB1 (Homo sapiens, UniProt Q9Y6L6); assay: transporter inhibition, in vitro; assay type: in vitro ADME; details: at clinically relevant concentrations
CYP2C19 = CYP2C19 (Homo sapiens, UniProt P33261); assay: incubations with recombinant enzymes; assay type: in vitro ADME
rats [5] = assay: combined male and female rat fertility study; assay type: in vivo
Source text: In a combined male and female rat fertility study, belumosudil-treated male animals were mated with untreated females, or untreated males were mated with belumosudil-treated females.

rats [6] = assay: general toxicology studies, rats; assay type: in vivo, rat
[7] = system: bacterial mutagenicity (Ames); assay: in vitro bacterial mutagenicity (Ames) assay; assay type: cell-based
P-gp = P-gp (Homo sapiens, UniProt P08183); assay: transporter inhibition, in vitro; assay type: in vitro ADME; details: at clinically relevant concentrations
CYP2C8 = CYP2C8 (Homo sapiens, UniProt P10632); assay: incubations with recombinant enzymes; assay type: in vitro ADME
healthy male subjects = assay: phase I drug-drug interaction study, safety and tolerability (Example 1); assay type: in vivo, human
Source text: This was a single center, non-randomized, DDI study in 35 (Part 1) and 38 (Part 2) healthy males. The key inclusion criterion was males aged 18 to 55 years (inclusive). […] In Part 2, co-administration with omeprazole was studied. The study design is illustrated in FIG. 1.
At least a 2-to 8-day washout occurred between each period to account for a minimum of 5 half-lives of the active moieties dosed in the preceding period.
Safety and tolerability of belumosudil was the secondary endpoint of the study and was evaluated by AEs, vital signs, physical examinations, electrocardiograms (ECGs), and clinical laboratory tests. All subjects who received at least one dose of belumosudil or perpetrator compound were included in the safety population.

pH-dependent solubility = assay type: physicochemical
[8] = pharmacokinetics in healthy subjects (label); assay type: in vivo, human
[9] = single oral dose of radiolabeled belumosudil

T1 sequence (P10635 whole entry): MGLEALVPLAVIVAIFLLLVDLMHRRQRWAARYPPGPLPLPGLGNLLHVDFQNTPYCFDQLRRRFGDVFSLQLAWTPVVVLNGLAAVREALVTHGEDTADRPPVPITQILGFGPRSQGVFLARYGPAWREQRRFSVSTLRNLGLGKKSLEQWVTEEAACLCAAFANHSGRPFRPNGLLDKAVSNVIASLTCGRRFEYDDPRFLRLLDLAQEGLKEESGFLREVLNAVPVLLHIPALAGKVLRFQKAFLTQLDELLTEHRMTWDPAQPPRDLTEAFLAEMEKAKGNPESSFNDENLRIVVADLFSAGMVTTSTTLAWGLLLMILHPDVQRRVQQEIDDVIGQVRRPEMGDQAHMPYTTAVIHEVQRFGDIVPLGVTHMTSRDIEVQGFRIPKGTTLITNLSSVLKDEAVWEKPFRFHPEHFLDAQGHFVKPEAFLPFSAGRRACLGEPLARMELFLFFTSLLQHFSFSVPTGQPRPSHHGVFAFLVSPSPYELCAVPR
UGT1A9, sequence (O60656 26-530): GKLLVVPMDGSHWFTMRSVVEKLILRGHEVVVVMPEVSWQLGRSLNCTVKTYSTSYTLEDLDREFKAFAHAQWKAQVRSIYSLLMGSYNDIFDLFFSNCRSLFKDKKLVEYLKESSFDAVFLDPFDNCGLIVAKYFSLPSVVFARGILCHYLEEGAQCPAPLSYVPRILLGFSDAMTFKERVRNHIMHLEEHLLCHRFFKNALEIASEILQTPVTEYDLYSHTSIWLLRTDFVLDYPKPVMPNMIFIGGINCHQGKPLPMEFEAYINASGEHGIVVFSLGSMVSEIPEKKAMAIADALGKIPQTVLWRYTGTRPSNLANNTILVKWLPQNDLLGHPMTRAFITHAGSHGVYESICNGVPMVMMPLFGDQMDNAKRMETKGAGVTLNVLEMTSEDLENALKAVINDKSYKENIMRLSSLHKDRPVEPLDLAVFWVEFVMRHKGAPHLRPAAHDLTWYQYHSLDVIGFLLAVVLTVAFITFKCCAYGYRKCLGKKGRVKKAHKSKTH
BCRP, sequence (Q9UNQ0 whole entry): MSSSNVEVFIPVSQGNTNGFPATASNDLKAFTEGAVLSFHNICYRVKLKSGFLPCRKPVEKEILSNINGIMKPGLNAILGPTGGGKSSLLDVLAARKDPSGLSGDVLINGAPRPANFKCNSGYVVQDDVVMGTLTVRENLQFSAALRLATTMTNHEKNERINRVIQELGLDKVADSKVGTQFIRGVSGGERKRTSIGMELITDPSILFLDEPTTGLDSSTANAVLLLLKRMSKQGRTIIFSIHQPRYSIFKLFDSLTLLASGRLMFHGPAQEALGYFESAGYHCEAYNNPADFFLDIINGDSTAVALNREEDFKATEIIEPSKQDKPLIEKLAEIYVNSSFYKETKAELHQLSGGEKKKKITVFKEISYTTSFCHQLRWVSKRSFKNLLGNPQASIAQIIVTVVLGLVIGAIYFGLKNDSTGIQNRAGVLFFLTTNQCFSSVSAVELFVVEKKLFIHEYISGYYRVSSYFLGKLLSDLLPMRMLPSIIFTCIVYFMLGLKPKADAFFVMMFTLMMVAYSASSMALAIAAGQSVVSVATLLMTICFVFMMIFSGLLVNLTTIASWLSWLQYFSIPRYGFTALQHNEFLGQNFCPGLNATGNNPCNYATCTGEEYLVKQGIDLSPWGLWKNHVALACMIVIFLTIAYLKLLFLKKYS
P-gp, sequence (P08183 whole entry): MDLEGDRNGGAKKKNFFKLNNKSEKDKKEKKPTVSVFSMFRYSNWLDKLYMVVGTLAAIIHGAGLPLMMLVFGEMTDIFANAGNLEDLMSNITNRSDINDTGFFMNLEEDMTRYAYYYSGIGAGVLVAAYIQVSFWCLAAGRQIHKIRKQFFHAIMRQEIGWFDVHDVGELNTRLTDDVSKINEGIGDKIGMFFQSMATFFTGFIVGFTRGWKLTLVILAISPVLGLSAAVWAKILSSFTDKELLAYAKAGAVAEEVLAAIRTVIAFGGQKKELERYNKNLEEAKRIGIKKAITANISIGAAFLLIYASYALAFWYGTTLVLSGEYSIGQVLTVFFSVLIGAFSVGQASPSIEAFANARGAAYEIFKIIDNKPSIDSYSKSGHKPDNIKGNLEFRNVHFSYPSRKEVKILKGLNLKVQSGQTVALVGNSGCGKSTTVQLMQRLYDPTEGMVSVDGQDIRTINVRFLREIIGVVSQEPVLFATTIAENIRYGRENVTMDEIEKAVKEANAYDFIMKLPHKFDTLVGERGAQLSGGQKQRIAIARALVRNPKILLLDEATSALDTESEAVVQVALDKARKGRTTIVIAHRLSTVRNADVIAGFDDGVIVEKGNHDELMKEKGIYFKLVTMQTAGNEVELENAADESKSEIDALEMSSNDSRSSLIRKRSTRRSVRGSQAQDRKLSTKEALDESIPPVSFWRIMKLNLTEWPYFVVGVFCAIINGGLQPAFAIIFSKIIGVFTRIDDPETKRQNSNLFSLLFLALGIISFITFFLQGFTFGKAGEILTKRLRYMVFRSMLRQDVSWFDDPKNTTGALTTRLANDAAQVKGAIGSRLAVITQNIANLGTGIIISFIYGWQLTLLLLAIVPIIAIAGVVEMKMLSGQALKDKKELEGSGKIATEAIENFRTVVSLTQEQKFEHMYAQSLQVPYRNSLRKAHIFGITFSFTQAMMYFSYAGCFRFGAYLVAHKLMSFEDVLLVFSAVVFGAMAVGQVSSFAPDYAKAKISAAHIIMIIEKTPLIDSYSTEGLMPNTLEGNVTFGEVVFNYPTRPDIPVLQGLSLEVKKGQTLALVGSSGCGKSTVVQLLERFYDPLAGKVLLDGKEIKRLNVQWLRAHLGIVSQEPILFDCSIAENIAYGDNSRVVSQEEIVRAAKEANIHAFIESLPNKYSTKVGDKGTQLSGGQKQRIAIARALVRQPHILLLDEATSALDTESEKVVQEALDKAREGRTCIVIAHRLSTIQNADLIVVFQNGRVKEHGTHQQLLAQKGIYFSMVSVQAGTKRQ
CYP2C19, sequence (P33261 whole entry): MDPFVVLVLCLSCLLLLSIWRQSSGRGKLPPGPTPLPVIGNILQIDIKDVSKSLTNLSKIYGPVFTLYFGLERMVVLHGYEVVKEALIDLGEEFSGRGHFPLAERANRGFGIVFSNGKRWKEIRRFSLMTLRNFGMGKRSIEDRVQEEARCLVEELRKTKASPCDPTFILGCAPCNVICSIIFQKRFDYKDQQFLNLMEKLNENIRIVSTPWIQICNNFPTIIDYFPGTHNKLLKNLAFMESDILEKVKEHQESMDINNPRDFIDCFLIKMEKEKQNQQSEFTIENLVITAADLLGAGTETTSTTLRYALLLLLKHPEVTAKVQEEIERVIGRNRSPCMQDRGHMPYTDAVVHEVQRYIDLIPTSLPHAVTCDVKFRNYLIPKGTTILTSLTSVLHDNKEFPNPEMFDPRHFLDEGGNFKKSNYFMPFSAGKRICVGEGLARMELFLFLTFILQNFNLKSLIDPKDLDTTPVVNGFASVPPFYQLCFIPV
OATPIB1, sequence (Q9Y6L6 whole entry): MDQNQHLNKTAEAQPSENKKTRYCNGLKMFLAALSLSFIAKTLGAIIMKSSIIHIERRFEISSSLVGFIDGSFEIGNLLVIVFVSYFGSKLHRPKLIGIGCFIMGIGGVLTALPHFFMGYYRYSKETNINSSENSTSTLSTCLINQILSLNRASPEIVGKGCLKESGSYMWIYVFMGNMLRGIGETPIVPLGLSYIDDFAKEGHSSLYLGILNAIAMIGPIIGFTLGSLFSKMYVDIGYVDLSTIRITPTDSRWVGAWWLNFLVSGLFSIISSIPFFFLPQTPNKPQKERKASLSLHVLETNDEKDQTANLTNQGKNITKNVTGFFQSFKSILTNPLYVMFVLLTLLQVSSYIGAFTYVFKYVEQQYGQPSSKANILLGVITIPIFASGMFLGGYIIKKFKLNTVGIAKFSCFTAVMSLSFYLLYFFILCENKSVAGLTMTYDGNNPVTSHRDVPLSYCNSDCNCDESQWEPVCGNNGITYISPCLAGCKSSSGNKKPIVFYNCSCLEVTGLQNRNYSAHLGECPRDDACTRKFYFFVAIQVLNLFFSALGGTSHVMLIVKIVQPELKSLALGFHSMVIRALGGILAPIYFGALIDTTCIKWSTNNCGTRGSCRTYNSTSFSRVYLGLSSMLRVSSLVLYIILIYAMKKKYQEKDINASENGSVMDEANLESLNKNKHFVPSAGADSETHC
CYP3A4, sequence (P08684 whole entry): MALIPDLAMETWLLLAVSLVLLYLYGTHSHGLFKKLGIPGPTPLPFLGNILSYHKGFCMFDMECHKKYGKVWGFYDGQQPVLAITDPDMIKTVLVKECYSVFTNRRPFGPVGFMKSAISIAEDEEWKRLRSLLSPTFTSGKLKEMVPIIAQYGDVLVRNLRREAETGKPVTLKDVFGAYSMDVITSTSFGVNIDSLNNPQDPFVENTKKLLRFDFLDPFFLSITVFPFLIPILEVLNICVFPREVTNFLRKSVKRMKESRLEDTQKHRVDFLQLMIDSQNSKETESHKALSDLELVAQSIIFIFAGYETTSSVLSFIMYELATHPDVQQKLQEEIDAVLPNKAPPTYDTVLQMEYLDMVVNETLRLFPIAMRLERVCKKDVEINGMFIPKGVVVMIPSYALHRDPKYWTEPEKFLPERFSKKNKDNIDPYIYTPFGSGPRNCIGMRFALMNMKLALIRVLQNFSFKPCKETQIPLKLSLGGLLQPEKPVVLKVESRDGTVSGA

For `CC(C)NC(=O)COc1cccc(-c2nc(Nc3ccc4[nH]ncc4c3)c3ccccc3n2)c1` [Belumosudil, 2-{3-[4-(1H-indazol-5-ylamino)-2-quinazolinyl]phenoxy}-N-(propan-2-yl) acetamide], the CYP2D6 inhibition (CYP2D6 [1]) was “inhibitor”, the “doses with fetal malformations” value (pregnant rats; pilot study, oral, period of organogenesis) was no less than 50 mg/kg/day and the “maternal exposures (AUC) with adverse developmental outcomes, times human exposure at recommended dose” value (pregnant rats; rat) was no less than 3 times. The solubility ([2]; pH 2.7, aqueous buffer) was greater than 100 µg/mL, the solubility ([2]; pH 6.5, aqueous buffer) was roughly 4 µg/mL (≈ 8.84 µM) and the solubility ([2]; pH 7.4, aqueous buffer) was roughly 3 µg/mL (≈ 6.63 µM). The “share of belumosudil metabolism” value (CYP2D6 [3]) was 21.7%, the genotoxicity [4] was “not genotoxic” and the BCRP inhibition (BCRP) was “inhibits”. The “share of belumosudil metabolism” value (CYP3A4) was 41.9%, the UGT1A9 inhibition (UGT1A9) was “inhibitor” and the OATPIB1 inhibition (OATPIB1) was “inhibits”. For the same compound, the “share of belumosudil metabolism” value (CYP2C19) was less than 5%, the “dose with increased pre-or post-implantation loss and decreased number of viable embryos” value (rats [5]; female rats, treated or mated with treated males) was 275 mg/kg/day and the “dose with abnormal sperm findings and testes/epididymis organ changes” value (rats [5]; male rats) was 275 mg/kg/day. The “dose with reduced fertility” value (rats [5]; treated males or females) was 275 mg/kg/day, the “dose with decreased follicular development in ovaries” value (rats [6]) was 275 mg/kg/day and the genotoxicity [7] was “not genotoxic”. For the same compound, the P-gp inhibition (P-gp) was “inhibits”, the “share of belumosudil metabolism” value (CYP2C8) was 14.2% and the “treatment-emergent AEs (TEAEs) reported” value (healthy male subjects; Periods 1, 2, and 4) was 33. The “AEs considered possibly related to belumosudil” value (healthy male subjects; all mild: abdominal distension, hot flush, fatigue) was “Three”, the “serious AE (SAE)” value (healthy male subjects; ankle fracture after belumosudil+itraconazole, considered unrelated) was “One” and the “subjects reporting gastrointestinal disorders” value (healthy male subjects; belumosudil alone) was 3 subjects. The “subjects reporting gastrointestinal disorders” value (healthy male subjects; belumosudil+itraconazole) was 5 subjects, the “deaths or AEs leading to subject withdrawal” value (healthy male subjects; in vivo) was “no deaths or AEs leading to subject withdrawal” and the safety profile (healthy male subjects; with and without perpetrator compounds) was “unremarkable; also recorded: safe, and no notable adverse events were reported”. The solubility (pH-dependent solubility; pH 1.08, simulated gastric fluid) was 11 µg/mL (≈ 24.3 µM), the solubility (pH-dependent solubility; pH 1.6, simulated gastric fluid) was 1640 µg/mL (≈ 3630 µM) and the solubility (pH-dependent solubility; pH 6.5, aqueous buffer) was 3 µg/mL (≈ 6.63 µM). The solubility (pH-dependent solubility; simulated gastric fluid, pH 2.0) was 1430 µg/mL (≈ 3170 µM), the “increase in AUC with high-fat and high-calorie meal vs fasted” value ([8]; single dose) was 2 times and the “increase in Cmax with high-fat and high-calorie meal vs fasted” value ([8]; single dose) was 2.2 times. The “radioactivity recovered in feces” value [8, 9] was 85%, the “radioactivity recovered in urine” value [8, 9] was “less than 5%” and the “recovered in feces as unchanged” value [8, 9] was 30%.
